Results: article PMC8197275, “Novel Tdp1 Inhibitors Based on Adamantane Connected with Monoterpene Moieties via Heterocyclic Fragments” (Molecules, 2021)
Like-named read-outs stand apart in the source and are kept apart here.

Experiments:
[1] = target: T1, Tdp1 (Homo sapiens, UniProt Q9NUW8); assay: Tdp1 cleavage activity, fluorophore quencher-coupled DNA-biosensor, real-time; type: biochemical; set-up: inferred from the pET 16B vector and Ni-chelating resin purification; made in house; conditions: recombinant Tdp1 1.5 nM, 50 nM biosensor; read-out: IC50 (Tdp1 activity inhibition at 50%)
Procedure: The recombinant Tdp1 was purified to homogeneity by chromatography on Ni-chelating resin and phosphocellulose P11 as described, using plasmid pET 16B-Tdp1, kindly provided by Dr. K.W. Caldecott (University of Sussex, United Kingdom). Tdp1 activity was detected as described in the work. Briefly, we measured the fluorescence intensity after quencher removal from a fluorophore quencher–coupled DNA oligonucleotide catalyzed by Tdp1. The reaction was carried out at different concentrations of inhibitors. The control samples contained 1% DMSO. The reaction mixtures contained Tdp1 buffer (50 mM Tris-HCl pH 8.0, 50 mM NaCl, and 7 mM β-mercaptoethanol), 50 nM biosensor, and an inhibitor being tested. The reaction was started by the addition of purified Tdp1 (1.5 nM). The biosensor (5′-[FAM] AAC GTC AGGGTC TTC C [BHQ]-3′) was synthesized in the Laboratory of Biomedical Chemistry at the Institute of Chemical Biology and Fundamental Medicine (Novosibirsk, Russia).
The reactions were incubated on a POLARstar OPTIMA fluorimeter (BMG LAB-TECH, GmbH) to measure fluorescence every 55 s (ex. 485 nm/em. 520 nm) during the linear phase (here, data are from minute 0 to minute 8). The values of IC50 were determined using a six-point concentration response curve in a minimum of three independent experiments, and were calculated using MARS Data Analysis 2.0 (BMG LABTECH).

[2] = tested on: HeLa cells; assay: Sensitizing of HeLa cells to topotecan by Tdp1 inhibitors; type: cell-based, human; conditions: for HeLa CC50 of topotecan with Tdp1 inhibitor: human, 3 days, 5 µM; for combination index (CI) with topotecan: different concentrations of topotecan, CompuSyn
Procedure: (§1) The potential for sensitizing the cancer cell lines to topotecan using the Tdp1 inhibitors was investigated using the MTT assay. Neutralizing the enzymatic activity of Tdp1 by blocking access to its catalytic site using a small molecule should sensitize the cytotoxic potential of topotecan, since the complex of Top1 with DNA cannot be unraveled. […] Nontoxic concentrations of the adamantane derivatives (5 μM) were used for the HeLa cell line; the dose response for topotecan was measured and the corresponding CC50 values were derived, and the results are shown in Figure 4 for 20c and in Table 2 for all the derivatives.
(§2) For HeLa cells, increased cytotoxicity was seen when the adamantanes and topotecan were combined. […] The combination index (CI) for different concentrations of topotecan and 20c at 5 μM was in the range 0.49–0.82, and at 10 μM of 20c, it was 0.23–0.78. This indicates a synergistic effect of topotecan and 20c. The CI values were calculated with the CompuSyn version 1.0 software. For the HCT-116 cells, the synergistic effects of the compounds were different than for the HeLa cells. […] The CI plot at a different fraction affected (Fa) was determined for topotecan (5, 15, 150, 500 and 1500 nM) and 20g (1, 3, 10, 20 μM). The CI values for most of the combinations correspond to a synergistic effect (CI < 1, see Figure S3 in the Supplementary Materials).
(§3) The human cervical cancer HeLa cells were grown in Iscove’s modified Dulbecco’s medium (IMDM) with 40 μg/mL gentamicin, 50 IU/mL penicillin, 50 μg/mL streptomycin (MP Biomedicals), and 10% of fetal bovine serum (Biolot) in a 5% CO2 atmosphere. Human colon adenocarcinoma HCT-116, rectum adenocarcinoma SW837, and human embryo kidney HEK293A cell lines were cultured in DMEM medium (Invitrogen) supplemented with 10% fetal bovine serum (FBS) (Invitrogen), penicillin (100 units/mL), and streptomycin (100 μg/mL), at 37 °C, 5% CO2 in a humid atmosphere. After the formation of a 30–50% monolayer, the tested compounds were added to the medium. The volume of the added reagents was 1/100 of the total volume of the culture medium, and the amount of DMSO was 1% of the final volume. Control cells were grown in the presence of 1% DMSO. The cell culture was monitored for 3 days.
(§4) The cytotoxicity of the compounds to HeLa and HEK293A cell lines was examined using the EZ4U Cell Proliferation and Cytotoxicity Assay (Biomedica, Austria), according to the manufacturer’s protocols.

[3] = Solubility remark during biological testing; type: physicochemical; conditions: remark in words
[4] = Cytotoxicity, EZ4U Cell Proliferation and Cytotoxicity Assay, HeLa; type: cell-based; conditions: human, HeLa cells, cervical cancer HeLa
Procedure: (§5) The cytotoxicity of compounds was investigated using HeLa (cervical cancer), SW837 and HCT-116 (colon cancers) cell lines, and the results are shown in Table 1 and Figure S2 in the Supplementary Materials. […] In general, the HeLa cell line was less sensitive to the inhibitors than the HCT-116 and SW837 cells.
as §3, §4

[5] = Cytotoxicity, MTT test, HCT-116; type: cell-based; conditions: human, HCT-116 cells; colorectal HCT-116, 72 h MTT
Procedure: as §5, §3
(§6) The medium was removed, and the dark blue crystals of formazan were dissolved in 100 μL of isopropanol. The absorbance at 570 nm (peak) and 620 nm (baseline) was determined using a microplate reader Multiscan FC (Thermo Fisher Scientific Corporation). All concentrations were performed in triplicate. The values are given as mean ± standard deviation (S.D.) values, and all measurements were repeated three times.

[6] = tested on: HCT-116 cells; assay: Sensitizing of HCT-116 cells to topotecan by Tdp1 inhibitors; type: cell-based, human; conditions: for HCT116 CC50 of topotecan with Tdp1 inhibitor: human, 72 h
Procedure: as §1, §2, §3, §6

[7] = Cytotoxicity, MTT test, SW837; type: cell-based; conditions: human, SW837 cells; colorectal SW837, 72 h MTT
Procedure: as §5, §3, §6

[8] = tested on: HEK293A cells; assay: Cytotoxicity on noncancerous cell line HEK293A (EZ4U); type: cell-based, human; conditions: concentrations up to 30 μM; data not shown
Procedure: as §5, §3, §4

[9] = target: T1, Tdp1; set-up: inferred from the pET 16B vector and Ni-chelating resin purification; made in house; conditions: cited from earlier work

T1 sequence (Q9NUW8 whole entry): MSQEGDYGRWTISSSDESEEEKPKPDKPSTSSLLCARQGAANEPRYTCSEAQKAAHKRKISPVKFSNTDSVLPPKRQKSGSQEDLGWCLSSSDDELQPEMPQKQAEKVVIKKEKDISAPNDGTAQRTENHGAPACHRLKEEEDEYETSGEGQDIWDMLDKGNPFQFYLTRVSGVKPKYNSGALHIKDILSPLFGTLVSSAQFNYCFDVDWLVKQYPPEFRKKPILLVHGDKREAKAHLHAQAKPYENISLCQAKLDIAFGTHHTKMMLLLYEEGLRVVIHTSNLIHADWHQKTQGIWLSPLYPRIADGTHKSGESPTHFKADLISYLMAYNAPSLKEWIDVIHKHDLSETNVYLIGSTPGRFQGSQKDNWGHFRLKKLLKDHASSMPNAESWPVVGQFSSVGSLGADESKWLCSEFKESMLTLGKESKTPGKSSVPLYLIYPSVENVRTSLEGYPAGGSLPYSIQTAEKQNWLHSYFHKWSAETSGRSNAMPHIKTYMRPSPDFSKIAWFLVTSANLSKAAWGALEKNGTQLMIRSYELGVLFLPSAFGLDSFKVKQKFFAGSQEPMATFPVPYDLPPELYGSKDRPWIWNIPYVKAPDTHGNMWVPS

Q: What does the source list for `CC(C)=CCCC(C)CC(=O)Nc1nnc(C23CC4CC(CC(C4)C2)C3)s1` (stereo not drawn) [25b, N-(5-(Adamantan-1-yl)-1,3,4-thiadiazol-2-yl)-3,7-dimethyloct-6-enamide]?
A: IC50 [1]: 2.59 ± 0.48 µM; HeLa CC50 of topotecan with Tdp1 inhibitor [2]: 2.9 µM; solubility [3]: poor solubility; CC50 at 3 days [4]: > 100 µM; CC50 at 72 h [5]: 66 ± 6 µM; HCT116 CC50 of topotecan with Tdp1 inhibitor ([6]; 20 µM): 611.9 (20) nM; CC50 at 72 h [7]: 83 ± 8 µM

Q: For `CC[C@@]1(O)C(=O)OCc2c1cc1n(c2=O)Cc2cc3c(CN(C)C)c(O)ccc3nc2-1` [Topotecan, topotecan, reference compound], which CC50 ([2]; Homo sapiens, HeLa, topotecan alone) is on record?
A: 6 µM

Q: What about the CC50 ([6]; Homo sapiens, HCT-116, topotecan alone, read-out: HCT116 CC50 of topotecan) of the same molecule?
A: 0.715 µM

Q: Which IC50 [1] does the source give for `CC1(C)[C@H]2CC=C(CCNC(=O)C34CC5CC(CC(C5)C3)C4)[C@@H]1C2` [28g, reference compound] here?
A: > 15 µM

Q: With `C=C(C)[C@@H]1CC=C(C(=O)Nc2nnc(C34CC5CC(CC(C5)C3)C4)s2)CC1` [25d, (S)-N-(5-(adamantan-1-yl)-1,3,4-thiadiazol-2-yl)-4-(prop-1-en-2-yl)cyclohex-1-ene-1-carboxamide] as the molecule, how does the solubility [3] read?
A: poor solubility

Q: What about the melting point of the same molecule?
A: 265.6 °C

Q: With `CC(C)=CCC/C(C)=C/CSc1n[nH]c(C23CC4CC(CC(C4)C2)C3)n1` [20c, 5-(Adamantan-1-yl)-3-(((E)-3,7-dimethylocta-2,6-dien-1-yl)thio)-1H-1,2,4-triazole] as the molecule, how does the IC50 [1] read?
A: 5.3 ± 1.7 µM

Q: And the “potentiation of the cytotoxic potency of topotecan” value [2]?
A: 3 ×

Q: And the “combination index (CI) with topotecan” value ([2]; HeLa, inhibitor at 5 μM)?
A: 0.49–0.82

Q: And the “combination index (CI) with topotecan” value ([2]; HeLa, inhibitor at 10 μM)?
A: 0.23–0.78

Q: And the “HeLa CC50 of topotecan with Tdp1 inhibitor” value [2]?
A: 1.9 µM

Q: What about the CC50 at 3 days [4] of the same molecule?
A: 64 ± 6 µM

Q: What about the CC50 at 72 h [5] of the same molecule?
A: 16 ± 7 µM

Q: What about the “HCT116 CC50 of topotecan with Tdp1 inhibitor” value ([6]; 15 µM) of the same molecule?
A: 460.0 (15) nM

Q: And the “effect on cell viability, HEK293A” value [8]?
A: no effect on cell viability

Q: And the CC50 at 72 h [7]?
A: 41 ± 6 µM

Q: Which IC50 [1] does the source give for `CC(C)=CCC[C@H](C)CCSc1n[nH]c(C23CC4CC(CC(C4)C2)C3)n1` [20b, 5-(Adamantan-1-yl)-3-(((S)-3,7-dimethyloct-6-en-1-yl)thio)-1H-1,2,4-triazole] here?
A: 1.5 ± 0.3 µM

Q: And the CC50 at 3 days [4]?
A: > 100 µM

Q: What about the CC50 at 72 h [5] of the same molecule?
A: > 100 µM

Q: What about the “HCT116 CC50 of topotecan with Tdp1 inhibitor” value ([6]; 20 µM) of the same molecule?
A: 575.3 (20) nM

Q: What about the CC50 at 72 h [7] of the same molecule?
A: 41 ± 4 µM

Q: With `C[C@@H]1CC[C@@H]2[C@@H](C1)O[C@@H](c1ccc(NC(=O)C34CC5CC(CC(C5)C3)C4)s1)C[C@]2(C)O` [compound 13] as the molecule, how does the IC50 [9] read?
A: 1.2 µM

Q: With `CC1(C)[C@H]2CC=C(C(=O)NC34CC5CC(CC(C5)C3)C4)[C@@H]1C2` [26c, reference compound] as the molecule, how does the IC50 [1] read?
A: > 15 µM

Q: With `C[C@@H]1CC[C@@H]2[C@@H](C1)O[C@@H](c1ccc(NC(=O)c3cccc4ccccc34)s1)C[C@]2(C)O` [compound 5] as the molecule, how does the IC50 [9] read?
A: 2 µM
